The record followed here is US7955596B2 (priority 2003, dated 2011).

The subject of the assay is B. anthracis strain 34F2ΔluxS. The format is cell-based.

Take `CCCCC1=C(Br)/C(=C/Br)OC1=O` [furanone 1, (5Z)-4-bromo-5-(bromomethylene)-3-butyl-2(5H)-furanone]: the “Growth of the 34F2ΔluxS strain (OD600)” value is on record as “dramatically inhibited”. In addition, the “Growth inhibitory effect for 34F2ΔluxS relative to wild-type 34F2” value (20 μg/ml, 30 hrs) was “prolonged”.
